According to the supplement of paper PMC10307832:

How the values were obtained:
Assay in all cases: relative viability (nuclei count vs DMSO), 5 days (fraction); higher = more cells survive
AZ628 + Decitabine = compound: CC1=C(C=C(C=C1)NC(=O)C2=CC(=CC=C2)C(C)(C)C#N)NC3=CC4=C(C=C3)N=CN(C4=O)C [AZ628] + Nc1ncn([C@H]2C[C@H](O)[C@@H](CO)O2)c(=O)n1 [Decitabine] (partner 2 µM)
Procedure, shortened: (§1)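 After 5 days of treatment, lung cancer cells in 1536-well plates were fixed and stained in a single step (final 0.05% Triton X-100, 1% formaldehyde, 1 ug/ml Hoechst) and their nuclei counted on 4× images. Treatment had been applied by pin tool the day after seeding as one drug alone or as a fixed anchor-drug dose with five library-drug doses (not always all listed) in √10 steps. Relative viability is the nuclei count of treated wells divided by that of vehicle wells, and values are medians of duplicate plates.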

QS11 + Pictilisib = compound: C1CC2=C(C1)C=C(C=C2)OC3=NC(=C4C(=N3)N(C=N4)CC5=CC=C(C=C5)C6=CC=CC=C6)N[C@@H](CC7=CC=CC=C7)CO [QS11] + CS(=O)(=O)N1CCN(Cc2cc3nc(-c4cccc5[nH]ncc45)nc(N4CCOCC4)c3s2)CC1 [Pictilisib] (partner 1 µM)
Procedure, shortened: as §1

QS11 + Bortezomib = compound: C1CC2=C(C1)C=C(C=C2)OC3=NC(=C4C(=N3)N(C=N4)CC5=CC=C(C=C5)C6=CC=CC=C6)N[C@@H](CC7=CC=CC=C7)CO [QS11] + CC(C)C[C@H](NC(=O)[C@H](Cc1ccccc1)NC(=O)c1cnccn1)B(O)O [Bortezomib] (partner 0.002 µM)
Procedure, shortened: as §1

AZ628 + Phenformin = compound: CC1=C(C=C(C=C1)NC(=O)C2=CC(=CC=C2)C(C)(C)C#N)NC3=CC4=C(C=C3)N=CN(C4=O)C [AZ628] + N=C(N)NC(=N)NCCc1ccccc1 [Phenformin] (partner 250 µM)
Procedure, shortened: as §1

| Cell Line | relative viability (AZ628 + Decitabine; first compound 0.08 µM) | relative viability (AZ628 + Decitabine; first compound 0.253 µM) | relative viability (AZ628 + Decitabine; first compound 0.8 µM) | relative viability (AZ628 + Decitabine; first compound 2.53 µM) | relative viability (AZ628 + Decitabine; first compound 8 µM) | relative viability (QS11 + Pictilisib; first compound 0.08 µM) | relative viability (QS11 + Pictilisib; first compound 0.253 µM) | relative viability (QS11 + Pictilisib; first compound 0.8 µM) | relative viability (QS11 + Pictilisib; first compound 2.53 µM) | relative viability (QS11 + Pictilisib; first compound 8 µM) | relative viability (QS11 + Bortezomib; first compound 0.08 µM) | relative viability (QS11 + Bortezomib; first compound 0.253 µM) | relative viability (QS11 + Bortezomib; first compound 0.8 µM) | relative viability (QS11 + Bortezomib; first compound 2.53 µM) | relative viability (QS11 + Bortezomib; first compound 8 µM) | relative viability (AZ628 + Phenformin; first compound 0.08 µM) | relative viability (AZ628 + Phenformin; first compound 0.253 µM) | relative viability (AZ628 + Phenformin; first compound 0.8 µM) | relative viability (AZ628 + Phenformin; first compound 2.53 µM) | relative viability (AZ628 + Phenformin; first compound 8 µM) |
| --- | --- | --- | --- | --- | --- | --- | --- | --- | --- | --- | --- | --- | --- | --- | --- | --- | --- | --- | --- | --- |
| HCC-827 | 0.33 | 0.32 | 0.348 | 0.402 | 0.313 | 0.881 | 1.03 | 0.953 | 1.13 | 0.95 | 1.06 | 1.09 | 0.937 | 0.962 | 1.04 | 0.445 | 0.421 | 0.434 | 0.374 | 0.335 |
| LXF-289 | 0.403 | 0.378 | 0.394 | 0.371 | 0.372 | 0.761 | 0.796 | 0.673 | 0.704 | 0.754 | 1 | 0.996 | 0.791 | 0.819 | 0.614 | 0.527 | 0.499 | 0.473 | 0.501 | 0.362 |
| NCI-H727 | 0.918 | – | – | 0.644 | 0.345 | 0.355 | 0.304 | 0.407 | 0.279 | 0.229 | 0.804 | 0.72 | 0.893 | 0.739 | 0.35 | 0.422 | 0.386 | 0.374 | 0.329 | 0.341 |
| NCI-H322M | 0.659 | 0.716 | 0.696 | 0.681 | 0.688 | 0.55 | 0.483 | 0.492 | 0.545 | 0.49 | 1.31 | 1.04 | 1.27 | 1.4 | 1.63 | 0.783 | 0.737 | 0.725 | 0.769 | 0.663 |
| NCI-H2126 | 0.567 | 0.571 | 0.632 | 0.606 | 0.593 | 0.489 | 0.444 | 0.503 | 0.501 | 0.476 | 1.1 | 1.07 | 0.882 | 1.22 | 0.904 | 0.524 | 0.542 | 0.491 | 0.484 | 0.545 |
| NCI-H2405 | 0.552 | 0.53 | 0.488 | 0.495 | 0.408 | 0.393 | 0.412 | 0.468 | 0.756 | 0.567 | 0.926 | 0.946 | 0.895 | 1.03 | 1.03 | 0.153 | 0.202 | 0.229 | 0.235 | 0.24 |
| NCI-H520 | 0.563 | 0.488 | 0.547 | 0.472 | 0.382 | – | 0.343 | 0.27 | 0.321 | 0.275 | – | 0.593 | 0.541 | 0.479 | 0.471 | 0.583 | 0.452 | 0.64 | 0.476 | 0.398 |
| EKVX | 0.367 | 0.369 | 0.401 | 0.266 | 0.287 | 0.444 | 0.379 | – | 0.413 | 0.467 | 0.941 | 1.09 | – | 1.07 | 1.1 | 0.241 | 0.222 | 0.187 | 0.232 | 0.211 |
